In assay [1] the test system is thrombin formation. Put plainly: reduction of thrombin formation in narcotized rats. Format: in vivo, rat. How it is done:
(§1) For investigation of the pharmacodynamic properties, the following methods (1) through (4) were employed.
(4) The reduction of thrombin formation in narcotized rats was evaluated. The test of the reduction of thrombin formation by the substances of the present invention 6-[4-(1-imidazolyl)phenyl]-5-methyl-3-oxo-2,3,4,5-tetrahydropyridazine (A) and 6-[4-(2-methyl-1-imidazolyl)-phenyl]-5-methyl-3-oxo-2,3,4,5-[…] (B) in parallel with the reference substance acetylsalicylic acid (D) was carried out by oral administration to narcotized rats.

Assay [2] relates to normotensive Wistar rats. The experiment in a line: blood pressure-lowering effect on narcotized rats. It counts as in vivo, rat (male adult normotensive Wistar). Particulars: for Average arterial pressure / Heart frequency: rats, 3.16 mg/kg orally, n = 5, narcotized 90 min after application; for Average arterial pressure: control 112.8 ± 4.8; for Heart frequency: control 307 ± 11. On the procedure:
as §1
(1) The blood pressure-lowering effect on narcotized rats was evaluated. For testing of the blood pressure-lowering effect, the invention substance 6-[4-(imidazolyl)phenyl]-5-methyl-3-oxo-2,3,4,5-tetrahydropyridazine (A) was administered in parallel with the reference substance 1-hydrazinophthalazine (hydralazine) (C) orally to groups of 5 male adult normotensive Wistar rats. Ninety minutes after application, the animal was narcotized with 75 mg/kg of intraperitoneal phenobarbital, and the trachea and the carotid artery were cannulated.

In assay [3] the test system is anaesthetized dogs. The experiment in a line: blood pressure-lowering effect on anaesthetized dogs. It counts as in vivo, dog. Particulars: for influence on blood pressure (in words): Table 2, anaesthetized dogs; for Pressure, Δ mmHg, diastolic / Pressure, Δ mmHg, systolic: anaesthetized dogs, 0.316 mg/kg intraduodenally, change in pressure. On the procedure:
as §1
(2) The blood pressure-lowering effect on anaesthetized dogs was evaluated. The influence on the systolic and diastolic blood preessure of the subject compounds 6-[4-(1-imidazolyl)phenyl]-5-methyl-3-oxo-2,3,4,5-tetrahydropyridazine (A) and 6-[4-(2-methyl-1-imidazolyl)-phenyl]-5-methyl-3-oxo-2,3,4,5-tetrahydropyridazine (B) were studied on the anaesthetized dogs by intraduodenal administration.

Assay [4] relates to collagen-induced thrombocyte aggregation. Put plainly: inhibition of collagen-induced thrombocyte aggregation in vitro (method of Born, modified). Particulars: read-out: IC50 (concentration that caused a 50% reduction of the aggregation). It counts as cell-based, human. How it is done: as §1
(3) The inhibition of collagen-induced thrombocyte aggregation in vitro was evaluated. The suppression of collagen-induced thrombocyte aggregation in vitro was carried out on thrombocyte-rich human plasma with the inventive substance 6-[4-(1-imidazolyl)-phenyl]-5-methyl-3-oxo-2,3,4,5-tetrahydropyridazine (A) in parallel with the reference substance acetylsalicyclic acid (D) according to the method of Born (Nature, 194, 927-929 (1962)) in modified form (simultaneous application). The concentration that caused a 50% reduction of the aggregation was defined as IC50 in Table 3 set forth below.

Read-outs that look alike come from different tables or passages of the source.

For `CC1CC(=O)NN=C1c1ccc(-n2ccnc2)cc1` (stereo not shown) [Substance A, 6-[4-(1-imidazolyl)phenyl]-5-methyl-3-oxo-2,3,4,5-tetrahydropyridazine], the “Reduction in % (thrombin formation)” value in assay [1] (10 mg/kg orally) is recorded as -52%. Besides, the “blood pressure-lowering effect on the rats (in words)” value in assay [2] (Table 1, in comparison with hydralazine C) is recorded as “powerful blood pressure-lowering effect”. Besides, in assay [2], the Average arterial pressure is listed as 54.8 ± 8.9 mmHg and the Heart frequency was 415 ± 17 beats/min. Further, in assay [3], the “influence on blood pressure (in words)” value is given as “strong influence on blood pressure”; the “Pressure, Δ mmHg, diastolic” value is -51.42 mmHg; the “Pressure, Δ mmHg, systolic” value is -51.77 mmHg. The IC50 in assay [4] (thrombocyte-rich human plasma, collagen-induced, simultaneous application) was found to be 2.4 µM.
Consider `Cc1nccn1-c1ccc(C2=NNC(=O)CC2C)cc1` (stereo not shown) [Substance B, 6-[4-(2-methyl-1-imidazolyl)-phenyl]-5-methyl-3-oxo-2,3,4,5-tetrahydropyridazine], for which the “Reduction in % (thrombin formation)” value in assay [1] (10 mg/kg orally) is given as -48%. Further, in assay [3], the “influence on blood pressure (in words)” value is “strong influence on blood pressure”; the “Pressure, Δ mmHg, diastolic” value is -43.80 mmHg; the “Pressure, Δ mmHg, systolic” value is -48.18 mmHg.
In assay [2], `NNc1nncc2ccccc12` [Substance C, 1-hydrazinophthalazine, reference compound] yielded an Average arterial pressure of 82.0 ± 6 mmHg and a Heart frequency of 356 ± 8 beats/min.
Turning to `CC(=O)Oc1ccccc1C(=O)O` [Substance D, acetylsalicylic acid, reference compound], the “Reduction in % (thrombin formation)” value in assay [1] (100 mg/kg orally) is -45%. For the same compound, in assay [4] (Homo sapiens), the IC50 was > 300 µM.
